Consider eleven molecules from patent US10550171B2, “Immunomodulatory peptides and methods of use thereof” (THE GOVERNORS OF THE UNIVERSITY OF ALBERTA, priority 2012, dated 2020).

Test [1] relates to STAT2 phosphorylation. Put plainly: STAT2 phosphorylation in HFF-1 cells challenged with IL-28B, Western blot. The test is classed as cell-based, human. The following applies: for reduction in STAT2-phosphorylation: HFF-1 cells pre-incubated with peptide 10 μM, washed, IL-28B 100 ng/ml 30 minutes, normalized to STAT2 and β-tubulin; for blocking of STAT-2 phosphorylation: peptide pre-incubated 2 hours with IL-28B, then added to HFF1 for 30 minutes. (A western blot detects proteins with antibodies after separation by electrophoresis.)

Test [2] concerns the target T1, binding of IL29 to IL-28R (Homo sapiens, UniProt Q8IU57).
T1 sequence (Q8IU57 21-228 limits assumed): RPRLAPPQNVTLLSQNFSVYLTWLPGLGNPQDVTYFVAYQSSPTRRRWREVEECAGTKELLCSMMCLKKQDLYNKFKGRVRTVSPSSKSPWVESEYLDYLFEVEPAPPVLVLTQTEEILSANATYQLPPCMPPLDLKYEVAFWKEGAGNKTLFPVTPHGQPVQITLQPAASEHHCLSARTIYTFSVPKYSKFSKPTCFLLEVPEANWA
Put plainly: ELISA assay, effect of peptides on binding of IL29 to IL-28R. The following applies: for inhibition of the binding of IL29 to IL-28R: increasing peptide concentrations. (In general: ELISA stands for enzyme-linked immunosorbent assay.)

Test [3] relates to CMV (Towne strain). Put plainly: CMV replication plaque assay in HFF-1 cells. The test is classed as cell-based, cytomegalovirus (CMV). To be noted: HFF-1 cells pre-treated 2 h with peptide 10 μM; for inhibitory effect on CMV replication (viral growth curves, plaque assay): CMV Towne MOI 0.03, day 4 and day 6. The procedure: The data are depicted in FIG. 1. […] HFF-1 cells were pre-treated for 2 h with peptides (10 μM), then washed and infected with CMV (Towne strain, MOI 0.03) and viral growth curves were generated.
Peptides PRT ([…]; SEQ ID NO:23). LKY (ASVTFNLFRLLTRDLKY; SEQ ID NO: 15), and LNC (ASVTFNLFRLLTRDLNC; SEQ ID NO: 16) were pre-incubated at a concentration of 10 μM with HFF-1 cells (ATCC HS97FS. SCRC1041, and CCD1112SK). The cells were washed, then challenged with IL-28B (100 ng/ml) for 30 minutes. Peptides REV ([…]; SEQ ID NO:24), FKG ([…]; SEQ ID NO:25), and APP ([…]; SEQ ID NO:26) were pre-incubated for 2 hours with IL-28B, then added to HFF1 for 30 minutes. Proteins were harvested and STAT2 phosphorylation was determined by Western blot analysis. The effect of the peptides on CMV replication in HFF-1 cells was also tested. HFF-1 cells were pre-treated for 2 hours with peptides (10 μM) or control. CMV replication was determined 4 days later using plaque assays. The data are depicted in FIGS. 19 and 20. In FIG. 19, the data are from Western blot experiments. HFF11 cells were pre-treated with individual peptides for 2 hours, then challenged with IL28B for 30 minutes. Results were normalized to STAT2 and β-tubulin baseline expression. In FIG. 20, the data are from plaque assays. HFF1 cells were pre-treated with individual peptides for 2 hours, then infected with CMV Towne strain (multiplicity of infection 0.03). Plaque forming units (PFU) at day 4 were determined.

Test [4] relates to STAT1 phosphorylation. Kind of test: STAT-1 phosphorylation in THP1-derived macrophages, flow cytometry. The test is classed as cell-based. To be noted: IL28B 100 ng/mL, peptide 1 at 10 μM for 90 min before IL28B, peptide 17 added together with IL28B. The procedure:
The effect of peptide 1 and peptide 17 on STAT-1 phosphorylation in macrophages was tested using flow cytometry.
STAT1 phosphorylation is one of the earliest events that occur after the IFN receptor is activated. THP1 cells (a monocytic cell line) were stimulated for 3 days with phorbol-12-myristate-13-acetate (PMA) and then rested for another 5 days in standard cultivation methods (37° C. 5% CO2) with RPMI containing 10% fetal calf serum (FCS). After 3 days, the PMA was removed and fresh media added. This treatment induces maturation of THP1, such that the THP1 cells are induced to express macrophage markers (Daigneault et al. (2010) PLoSOne 5:e8668). Next, the cells were treated: (i) either for 90 min with peptide 1 at a concentration of 10 μM and then added IL28B at 100 ng/mL or (ii) peptide 17 was added directly together with IL28B. “Scramble p1” is a control peptide with the amino acid sequence of p1 scrambled. Scramble p17” is a control peptide with the amino acid sequence of p17 scrambled.
(In general: A flow cytometer gives signals particle by particle.)

Test [5] deals with T2, binding of IL28A to IL-28R (Homo sapiens, UniProt Q8IU57).
T2 sequence (Q8IU57 21-228 limits assumed): T1 sequence (Q8IU57 21-228 limits assumed)
Put plainly: ELISA assay, effect of peptides on binding of IL28A to IL-28R. The following applies: increasing peptide concentrations.

Test [6] deals with T3, IL28R1 (Homo sapiens, UniProt Q8IU57).
T3 sequence (Q8IU57 21-520): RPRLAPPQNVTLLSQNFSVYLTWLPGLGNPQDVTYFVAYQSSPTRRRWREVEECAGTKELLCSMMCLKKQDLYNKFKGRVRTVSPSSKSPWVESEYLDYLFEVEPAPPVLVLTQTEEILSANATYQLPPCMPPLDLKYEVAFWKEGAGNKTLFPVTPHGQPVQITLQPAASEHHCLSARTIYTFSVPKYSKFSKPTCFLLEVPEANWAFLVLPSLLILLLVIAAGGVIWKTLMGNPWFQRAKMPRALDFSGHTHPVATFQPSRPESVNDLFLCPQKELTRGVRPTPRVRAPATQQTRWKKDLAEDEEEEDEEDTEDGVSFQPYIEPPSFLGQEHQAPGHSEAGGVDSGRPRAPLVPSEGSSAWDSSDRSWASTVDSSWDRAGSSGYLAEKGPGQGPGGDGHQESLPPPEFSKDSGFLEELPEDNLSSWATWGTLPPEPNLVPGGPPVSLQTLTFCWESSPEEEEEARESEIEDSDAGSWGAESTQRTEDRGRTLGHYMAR
Kind of test: Biacore assay, binding of interferon lambda ligands to IL28R1. From the text:
FIG. 9 depicts binding affinity (KD values in PM) of ligands IL28A, IL28B, and IL29, and of peptides 1, 2, 6, 7, and 15-18, for IL28R1. […] In […], the KD values indicate differences between peptides.
FIG. 10 depicts the effect of peptides on binding of IL29 to IL-28R. Binding of IL29 was disrupted by addition of increasing peptide concentrations.

In the case of ASVTFNLFRLLTRDLKY [Peptide 6], in test [1], the “reduction in STAT2-phosphorylation” value stood at 40%. Also, the “inhibition of the binding of IL29 to IL-28R” value in test [2] is given as “highly potent”. In test [3], the “inhibitory effect on CMV replication (viral growth curves, plaque assay)” value (“inhibitory effect on CMV replication” below) is listed as “strong inhibitory effects”.

In the case of ASVTFNLFRLLTRDLNC [Peptide 7], in test [1], the “reduction in STAT2-phosphorylation” value is reported as 34%. In test [3] (CMV Towne MOI 0.03, day 4 after infection), the “lower CMV replication (plaque forming units)” value is 2.5 log10. Besides, the “inhibitory effect on CMV replication” value in test [3] is “strong inhibitory effects”. For ELASFKKARDALEESLKL [Peptide 1], in test [4], the STAT1 phosphorylation result is listed as “reduce STAT1 phosphorylation”. Besides, in test [2], the “IC50 for inhibition of IL29 binding, as excess of peptide over the natural ligand” value is listed as 50 time excess of peptide over the natural ligand and the “inhibition of the binding of IL29 to IL-28R” value was “highly potent”. In test [3], the “inhibitory effect on CMV replication” value was “strong inhibitory effects”. As to KLKNWSCSSPVFPGNWDLRL [Peptide 17], the STAT1 phosphorylation result in test [4] is given as “reduce STAT1 phosphorylation”. For the same molecule, in test [5], the “inhibition of the binding of IL28A to IL-28R” value is “potent”. Turning to LLKDCKCRSRLFPRTWDLRQ [Peptide 15], in test [5], the “inhibition of the binding of IL28A to IL-28R” value is “potent”. Take LLKDCRCHSRLFPRTWDLRQ [Peptide 16]: the “inhibition of the binding of IL28A to IL-28R” value in test [5] was “potent”. Regarding “MMCLKKQDLYNKFKG (MMCLKKQDLYNKFRG) [Peptide 9]”, the “blocking of STAT-2 phosphorylation” value in test [1] is “None of peptides REV, FKG, and APP blocked”. On to SEYLDYLFEVEPAPP [Peptide 10], for which the “blocking of STAT-2 phosphorylation” value in test [1] was “None of peptides REV, FKG, and APP blocked”. Consider VAYQSSPTRRRWREV [Peptide 8], for which the “blocking of STAT-2 phosphorylation” value in test [1] is “None of peptides REV, FKG, and APP blocked”.

B1: IL29: polypeptide of about 200 amino acids which binds a heterodimeric IL-28 receptor complex (protein, listed as Homo sapiens)
chain: MAAAWTVVLVTLVLGLAVAGPVPTSKPTTTGKGCHIGRFKSLSPQELASFKKARDALEESLKLKNWSCSSPVFPGNWDLRLLQVRERPVALEAELALTLKVLEAAAGPALEDVLDQPLHTLHHILSQLQACIQPQPTAGPRPRGRLHHWLHRLQEAPKKESAGCLEASVTFNLFRLLTRDLKYVADGNLCLRTSTHPEST
For the molecule B1, the “binding affinity towards IL28R1” value in test [6] is reported as “highest binding affinity of all Interferon lambdas”.

B2: IL28B: polypeptide of about 196 amino acids which binds a heterodimeric IL-28R complex (protein, listed as Homo sapiens)
chain: MTGDCMPVLVLMAAVLTVTGAVPVARLRGALPDARGCHIAQFKSLSPQELQAFKRAKDALEESLLLKDCKCRSRLFPRTWDLRQLQVRERPVALEAELALTLKVLEATADTDPALGDVLDQPLHTLHHILSQLRACIQPQPTAGPRTRGRLHHWLHRLQEAPKKESPGCLEASVTFNLFRLLTRDLNCVASGDLCV
In the case of B2, the “binding affinity towards IL28R1” value in test [6] was “significant lower binding affinity”.
